Series [1] has as its target T1, Solute carrier organic anion transporter family member 1A5 (Rattus norvegicus, UniProt O88397).
T1 sequence (O88397 whole entry): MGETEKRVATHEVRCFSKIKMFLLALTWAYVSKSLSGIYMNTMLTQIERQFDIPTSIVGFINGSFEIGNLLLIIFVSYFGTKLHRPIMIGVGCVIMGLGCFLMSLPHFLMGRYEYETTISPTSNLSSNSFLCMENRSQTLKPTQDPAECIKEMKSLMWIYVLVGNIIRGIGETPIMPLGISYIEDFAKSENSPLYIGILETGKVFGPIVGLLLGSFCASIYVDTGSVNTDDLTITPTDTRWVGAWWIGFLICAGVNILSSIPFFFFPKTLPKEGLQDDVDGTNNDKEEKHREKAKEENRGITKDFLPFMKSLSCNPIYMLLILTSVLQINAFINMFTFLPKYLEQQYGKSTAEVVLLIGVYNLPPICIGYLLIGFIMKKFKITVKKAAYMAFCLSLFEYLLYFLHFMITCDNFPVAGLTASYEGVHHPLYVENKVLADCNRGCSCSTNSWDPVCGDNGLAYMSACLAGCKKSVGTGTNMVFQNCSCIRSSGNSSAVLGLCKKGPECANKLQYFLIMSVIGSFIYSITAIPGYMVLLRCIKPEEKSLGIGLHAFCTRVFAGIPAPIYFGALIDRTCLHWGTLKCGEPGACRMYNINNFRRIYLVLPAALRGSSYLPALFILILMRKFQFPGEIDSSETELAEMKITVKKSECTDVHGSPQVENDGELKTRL
Nature of the series: (§1) TP_TRANSPORTER: uptake in Xenopus laevis oocytes. The conditions noted are these: oocyte. The series is classed as functional, cell-based, Oocyte.

In series [2] the target is T2, Solute carrier organic anion transporter family member 1B2 (Rattus norvegicus, UniProt Q9QZX8).
T2 sequence (Q9QZX8 whole entry): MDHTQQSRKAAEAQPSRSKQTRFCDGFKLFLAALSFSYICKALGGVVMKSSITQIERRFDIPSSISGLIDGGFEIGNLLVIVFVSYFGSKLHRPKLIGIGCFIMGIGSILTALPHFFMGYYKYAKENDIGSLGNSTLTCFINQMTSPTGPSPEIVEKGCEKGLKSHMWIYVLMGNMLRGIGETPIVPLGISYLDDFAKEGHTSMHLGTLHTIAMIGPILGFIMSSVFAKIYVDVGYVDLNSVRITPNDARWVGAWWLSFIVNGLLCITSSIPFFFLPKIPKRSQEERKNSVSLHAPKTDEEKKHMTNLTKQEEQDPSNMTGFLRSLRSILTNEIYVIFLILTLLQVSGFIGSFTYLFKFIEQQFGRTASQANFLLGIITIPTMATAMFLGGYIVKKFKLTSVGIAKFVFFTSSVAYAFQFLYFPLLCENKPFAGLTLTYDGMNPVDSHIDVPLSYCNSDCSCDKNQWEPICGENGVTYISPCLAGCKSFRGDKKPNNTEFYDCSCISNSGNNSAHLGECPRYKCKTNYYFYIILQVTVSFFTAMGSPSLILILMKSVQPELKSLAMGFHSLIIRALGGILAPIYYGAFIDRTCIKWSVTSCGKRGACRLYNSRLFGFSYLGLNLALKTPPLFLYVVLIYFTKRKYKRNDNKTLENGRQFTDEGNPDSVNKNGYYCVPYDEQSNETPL
Described as §1. The series is classed as functional, cell-based. The conditions noted are these: oocyte.

Series [3] addresses T3, Solute carrier organic anion transporter family member 1A4 (Rattus norvegicus, UniProt O35913).
T3 sequence (O35913 whole entry): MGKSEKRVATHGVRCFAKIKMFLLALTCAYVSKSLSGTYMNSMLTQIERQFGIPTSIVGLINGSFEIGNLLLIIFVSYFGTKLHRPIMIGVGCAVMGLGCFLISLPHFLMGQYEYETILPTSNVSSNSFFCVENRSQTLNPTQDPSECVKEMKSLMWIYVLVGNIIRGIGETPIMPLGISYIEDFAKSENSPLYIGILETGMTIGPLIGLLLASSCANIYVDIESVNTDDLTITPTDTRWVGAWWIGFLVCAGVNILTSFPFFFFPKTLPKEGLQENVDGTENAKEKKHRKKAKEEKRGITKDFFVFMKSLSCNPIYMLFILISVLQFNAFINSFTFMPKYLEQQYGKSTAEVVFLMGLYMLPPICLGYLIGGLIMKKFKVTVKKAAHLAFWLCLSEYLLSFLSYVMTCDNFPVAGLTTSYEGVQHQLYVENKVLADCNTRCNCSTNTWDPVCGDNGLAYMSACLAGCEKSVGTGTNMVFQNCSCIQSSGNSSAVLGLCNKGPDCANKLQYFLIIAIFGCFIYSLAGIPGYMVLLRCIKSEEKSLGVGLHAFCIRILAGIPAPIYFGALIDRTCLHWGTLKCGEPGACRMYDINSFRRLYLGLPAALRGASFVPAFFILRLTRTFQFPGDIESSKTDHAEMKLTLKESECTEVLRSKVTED
The description is as §1. The conditions noted are these: oocyte. The series is classed as functional, cell-based.

The target of series [4] is T4, Solute carrier organic anion transporter family member 1A1 (Rattus norvegicus, UniProt P46720).
T4 sequence (P46720 whole entry): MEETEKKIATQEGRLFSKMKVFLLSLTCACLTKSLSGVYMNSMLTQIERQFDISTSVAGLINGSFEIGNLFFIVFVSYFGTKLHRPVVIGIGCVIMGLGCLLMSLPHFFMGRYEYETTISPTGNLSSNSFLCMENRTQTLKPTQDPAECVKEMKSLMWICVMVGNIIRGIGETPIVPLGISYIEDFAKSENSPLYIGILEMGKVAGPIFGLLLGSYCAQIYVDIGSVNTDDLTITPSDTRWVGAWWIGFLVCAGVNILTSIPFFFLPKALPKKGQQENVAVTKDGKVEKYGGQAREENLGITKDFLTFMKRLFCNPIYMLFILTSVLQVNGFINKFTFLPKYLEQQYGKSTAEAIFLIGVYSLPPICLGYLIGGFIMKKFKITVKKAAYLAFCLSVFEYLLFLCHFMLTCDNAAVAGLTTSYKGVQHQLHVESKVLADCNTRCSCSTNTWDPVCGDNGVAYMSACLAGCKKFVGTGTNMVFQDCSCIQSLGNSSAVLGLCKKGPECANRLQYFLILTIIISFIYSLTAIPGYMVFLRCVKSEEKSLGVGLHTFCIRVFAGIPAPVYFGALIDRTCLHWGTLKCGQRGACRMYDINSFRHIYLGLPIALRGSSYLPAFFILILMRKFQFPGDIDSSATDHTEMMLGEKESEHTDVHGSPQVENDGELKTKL
The description is as §1. The series is classed as functional, cell-based. As to conditions: oocyte.

The target in series [5] is T5, Solute carrier organic anion transporter family member 1A5 (Oatp1a5) (Rattus norvegicus, UniProt O88397).
T5 sequence (O88397 whole entry): T1 sequence (O88397 whole entry)
The description is as §1. The series is classed as functional, cell-based, Oocyte. The conditions noted are these: Xenopus laevis oocytes.

Substrate in series [6]: CC1(C)SSC(C)(C)[C@@H](NC(=O)[C@@H](N)Cc2ccc(O)cc2)C(=O)NCC(=O)N[C@@H](Cc2ccccc2)C(=O)N[C@H]1C(=O)O
The series is described as §1. Format: functional, cell-based, Oocyte.

Substrate in series [7]: CCCCC[C@H](O)/C=C/[C@H]1[C@H](O)CC(=O)[C@@H]1C/C=C\CCCC(=O)O
The series is described as §1. Format: functional, cell-based, Oocyte.

Substrate in series [8]: O=C1OC(c2ccc(O)c(S(=O)(=O)O)c2)(c2ccc(O)c(S(=O)(=O)O)c2)c2c(Br)c(Br)c(Br)c(Br)c21
The description is as §1. Format: functional, cell-based, Oocyte.

Substrate in series [9]: [H][C@@]12CC=C3C[C@@H](OS(=O)(=O)O)CC[C@]3(C)[C@@]1([H])CC[C@]1(C)C(=O)CC[C@@]21[H]
The series is described as §1. Format: functional, cell-based, Oocyte.

Substrate in series [10]: C[C@]12CC[C@@H]3c4ccc(O)cc4CC[C@H]3[C@@H]1CC[C@@H]2O[C@@H]1O[C@H](C(=O)O)[C@@H](O)[C@H](O)[C@H]1O
The description is as §1. Format: functional, cell-based, Oocyte.

Substrate in series [11]: C[C@]12CC[C@@H]3c4ccc(OS(=O)(=O)O)cc4CC[C@H]3[C@@H]1CCC2=O
Described as §1. The series is classed as functional, cell-based, Oocyte.

Substrate in series [12]: CC(C)C[C@@H]1NC(=O)[C@@H](C(C)C)NC(=O)[C@@H]2CCCN2C(=O)[C@@H](CC(=O)O)NC(=O)[C@@H](Cc2c[nH]c3ccccc23)NC1=O
The series is described as §1. Format: functional, cell-based, Oocyte.

Substrate in series [13]: CCCCC/C=C\C\C=C/C=C/C=C/[C@@H](SC[C@@H](NC(=O)CC[C@H](N)C(=O)O)C(=O)NCC(=O)O)[C@@H](O)CCCC(=O)O
The series is described as §1. Format: functional, cell-based, Oocyte.

Broadly, the Km is the substrate concentration at which the rate is half of its maximum.

Turning to `C=C[C@H]1C[N+]2(C)CC[C@H]1C[C@H]2[C@H](O)c1ccnc2ccc(OC)cc12`, the Activity result in series [1] and in [2] was “is not a substrate [-]” each time.
Take `Nc1ccc(C(=O)NCC(=O)O)cc1` [AMINOHIPPURIC ACID]: the Activity result in [1], in series [3] and in [2] was “is not a substrate [-]” in each case.
Turning to `CC(C)[C@H](NC(=O)[C@H](CCC(=O)O)NC(=O)[C@H](Cc1ccccc1)NC(=O)[C@@H](C)NC(=O)[C@@H](N)Cc1ccc(O)cc1)C(=O)N[C@H](C(=O)NCC(N)=O)C(C)C` [DELTORPHIN II], the Activity result in [1] and in series [2] was “is not a substrate [-]” in each case.
As for `CCCCC[C@H](O)/C=C/[C@H]1[C@H](O)CC(=O)[C@@H]1C/C=C\CCCC(=O)O` [DINOPROSTONE], in series [4], the Activity entry is “is not a substrate [-]”.
As to `CN(Cc1cnc2nc(N)nc(N)c2n1)c1ccc(C(=O)N[C@@H](CCC(=O)O)C(=O)O)cc1` [METHOTREXATE], the Activity result in [1], in [4] and in series [2] was “is not a substrate [-]” in each case.
As for `C[C@@H]1O[C@@H](O[C@H]2C[C@@H](O)[C@]3(CO)[C@H]4[C@H](O)C[C@]5(C)[C@@H](C6=CC(=O)OC6)CC[C@]5(O)[C@@H]4CC[C@]3(O)C2)[C@H](O)[C@H](O)[C@H]1O` [OUABAIN], the Michaelis constant (Km) in [5] worked out at 1570 µM. Besides, the Activity result in series [2] was “is not a substrate [-]”.
In the case of `C=CC[N+]1([C@H]2C[C@H]3[C@@H]4CC[C@H]5C[C@H](O)[C@@H](N6CCOCC6)C[C@]5(C)[C@H]4CC[C@]3(C)[C@H]2OC(C)=O)CCCC1` [ROCURONIUM], the Activity entry in series [1] was “substrate [+]”; in series [2] it was “is not a substrate [-]”.
For `CC[N+](CC)(CC)CC` [TETRYLAMMONIUM], the Activity result in series [1], in series [4], in series [3] and in [2] was “is not a substrate [-]” in each case.

B1: Solute carrier organic anion transporter family member 1A5 (Rattus norvegicus) (protein)
chain: T1 sequence (O88397 whole entry)
With B1, the Michaelis constant (Km) was found to be 137 µM in series [6]; 35 µM in series [7]; 8.3 µM in series [8]; 162 µM in series [9]; 39 µM in series [10]; 268 µM in series [11]. Besides, the Km in [12] was determined as 417 µM.

B2: Solute carrier organic anion transporter family member 1B2 (Rattus norvegicus) (protein)
chain: T2 sequence (Q9QZX8 whole entry)
Turning to B2, the Km in series [6] was determined as 22 µM; in [7], 13 µM; in series [9] it was 5.3 µM; in series [10], 32 µM; in series [13], 6.5 µM; in series [11] it was 37 µM. The Michaelis-Menten constant (Km) in series [12] came to 13.8 µM.
